# Patent US8148360B2, “Supramolecular metallic complexes exhibiting both DNA binding and photocleavage” (Virginia Tech Intellectual Properties, Inc., priority 2006, dated 2012)
# Key:
# [1] = test system: pUC18 circular plasmid DNA; assay: DNA binding by agarose gel electrophoresis (migration shift of plasmid); conditions: for DNA binding: 10:1 metal complex:DNA base pair, with and without O2
# Text: (§1) FIG. 6. DNA binding and photocleavage by [{(bpy)2Ru(dpp)}2Ru(dpp)PtCl2](PF6)6 (Ru3Pt) assayed with 0.8% agarose gel electrophoresis post stained with ethidium bromide using circular plasmid pUC18 DNA with comparison to cis-[Pt(NH3)2Cl2] (Cisplatin) and [{(bpy)2Ru(dpp)}2Ru(dpp)](PF6)6 (Ru3) (bpy=2,2′-bipyridine, dpp=2,3-bis(2-pyridyl)pyrazine). Lanes λ are the molecular weight standards (23, 9.4, 6.6, 4.4, 2.3, and 2.0 kb), lanes C are the DNA controls showing mostly form I and minor form II pUC18 DNA. The cisplatin lane 1 is a 5:1 base pair (BP):metal complex (MC) and lane 2 a 20:1 BP:MC incubated for 1 hour at 37° C. The Ru3 lane 1 is a 20:1 BP:MC incubated for 1 hour at 37° C. The Ru3Pt lane 1 is 20:1 BP:MC kept in the dark at room temperature, lane 2 is 20:1 BP:MC incubated for 1 hour in the dark at 37° C., lane 3 is 20:1 BP:MC photolyzed with 450 nm-1000 nm light for 1 hour under atmospheric conditions, lane 4 is 20:1 BP:MC photolyzed with 450 nm-1000 nm light for 1 hour under argon.
# (§2) FIG. 9. DNA binding and photocleavage by [{(bpy)2Ru(dpp)}2Ru(dpq)PtCl2](PF6)6. Lane 1 is the molecular weight standard, lane C is the pUC18 DNA plasmid control, lane 25° is 10:1 metal complex:DNA base pair incubated at 25° C., lane 37° is the 10:1 ratio incubated at 37° C., Ar* is the 10:1 ratio photolyzed for 1 hour under Ar, lane O2* is the 10:1 ratio photolyzed under ambient atmosphere.
# as §2, with “10.” for “9.”, “[{(bpy)2Os(dpp)}2Ru(dpq)PtCl2](PF6)6.” for “[{(bpy)2Ru(dpp)}2Ru(dpq)PtCl2](PF6)6.”
# (§3) The DNA binding and photocleavage ability of the exemplary complex, [{(bpy)2Ru(dpp)}2Ru(dpp)PtCl2](PF6)6, has been investigated using gel electrophoresis. The cis-dichloroplatinum(II) moiety is designed to allow the complex to bind covalently to DNA. The Ru polyazine units are designed to allow the complex to undergo sensitization of molecular oxygen leading to DNA photocleavage. The presence of the cis-dichloroplatinum(II) sub-unit delivers the Ru polyazine sub-unit to its target prior to optical excitation. DNA interactions of [{(bpy)2Ru(dpp)}2Ru(dpp)PtCl2](PF6)6 were compared to a binding analyses of Ru3 and cisplatin using gel electrophoresis and pUC18 circular plasmid DNA, (2686 BP, Bayou Biolabs) post-stained with ethidium bromide. Lanes λ are the molecular weight standards (23, 9.4, 6.6, 4.4, 2.3, and 2.0 kb). Lanes C are the pUC18 DNA controls, showing primarily the supercoiled (form I) and minor nicked (form II) forms of the circular pUC18 plasmid. The lane 1 for cisplatin is a 5:1 base pairs (BP):metal complex (MC) and lane 2 is a 20:1 BP:MC solution incubated at 37° C. for 1 hr. […] Lane 1 of “Ru3Pt” is the 20:1 DNA BP: MC solution of [{(bpy)2Ru(dpp)}2Ru(dpp)PtCl2](PF6)6 incubated at 37° C. for 1 hr. […] Lane 4 is a 20:1 BP:MC solution photolyzed at λ>450 nm for 1 hour, under argon.
# A mixed-metal complex, [{(bpy)2Ru(dpp)}2Ru(dpq)PtCl2](PF6)6, was synthesized using bridging ligands dpq (2,3-bis(2-pyridyl)quinoxaline), and dpp (the ligand described in Example 1). The complex was tested for its ability to bind DNA and to photocleave the DNA in an O2 dependent manner by incubating the complex with DNA in the ambient atmosphere and under argon. […]
# [2] = test system: pUC18 circular plasmid DNA; assay: DNA photocleavage by agarose gel electrophoresis (form I to form II conversion) after visible light photolysis; format: biochemical; conditions: for DNA photocleavage: 10:1 ratio; for DNA photocleavage (supercoiled form I to nicked form II): 20:1 BP:MC
# Text: as §1, §2
# as §2, with “10.” for “9.”, “[{(bpy)2Os(dpp)}2Ru(dpq)PtCl2](PF6)6.” for “[{(bpy)2Ru(dpp)}2Ru(dpq)PtCl2](PF6)6.”
# as §3
# A mixed-metal complex, [{(bpy)2Ru(dpp)}2Ru(dpq)PtCl2](PF6)6, was synthesized using bridging ligands dpq (2,3-bis(2-pyridyl)quinoxaline), and dpp (the ligand described in Example 1). The complex was tested for its ability to bind DNA and to photocleave the DNA in an O2 dependent manner by incubating the complex with DNA in the ambient atmosphere and under argon. […] This illustrates the metal complex binds to DNA and photocleaves DNA in a oxygen dependent manner.
# A mixed-metal complex, [{(bpy)2Os(dpp)}2Ru(dpq)PtCl2](PF6)6, was synthesized using bridging ligands dpq (2,3-bis(2-pyridyl)quinoxaline), and dpp (as described in Example 3) but using osmium as a light absorbing metal component. […] This illustrates this metal complex also binds to DNA and photocleaves DNA in a oxygen dependent manner.
# [3] = photolyzed under ambient atmosphere (O2)
Substance,DNA binding [1],DNA photocleavage ([2]; photolyzed for 1 hour under Ar),"DNA photocleavage [2, 3]",other results
[{(bpy)2Os(dpp)}2Ru(dpq)PtCl2](PF6)6,effective in binding to DNA,not in the absence of O2,cleaved only when O2 was present,–
[{(bpy)2Ru(dpp)}2Ru(dpq)PtCl2](PF6)6,effective in binding to DNA,not in the absence of O2,cleaved only when O2 was present,–
"cis-[Pt(NH3)2Cl2] [cisplatin, reference compound]",–,–,–,"DNA binding (migration of pUC18 through the gel) ([1]; 5:1 and 20:1 BP:MC, incubated at 37° C. for 1 hr): migration of form I of the pUC18 is retarded"
"[{(bpy)2Ru(dpp)}2Ru(dpp)](PF6)6 [Ru3, reference compound]",–,–,–,"DNA binding (migration of pUC18 through the gel) ([1]; 20:1 BP:MC, incubated at 37° C. for 1 hr): migration of the DNA is not impacted"
[{(bpy)2Ru(dpp)}2Ru(dpp)PtCl2](PF6)6 [Ru3Pt],–,–,–,"DNA binding (migration of pUC18 through the gel) ([1]; Ru3Pt lane 1, 20:1 BP:MC, b60 prints incubated at 37° C. for 1 hr, FIG. 6 legend prints kept in the dark at room temperature): decreased migration of the form I pUC18 through the gel; DNA photocleavage (supercoiled form I to nicked form II) ([2]; photolyzed λ>450 nm for 1 hour, under argon): no DNA photocleavage is observed; DNA photocleavage (supercoiled form I to nicked form II) ([2]; photolyzed λirr>450 nm for 1 hour, under atmospheric conditions): appreciable conversion of the supercoiled (form 1) to nicked (form II) DNA"
